# Results: patent publication US9339486B2, “Heterocyclic modulators of cannabinoid receptors” (THE CLEVELAND CLINIC FOUNDATION, priority 2008, dated 2016)
# Key:
# [1] = system: spinal nerve ligation neuropathic pain model; test: Tactile allodynia in SNL neuropathic pain model (von Frey); type: in vivo, rat; details: for effect of antagonist alone on paw withdrawal threshold: 5 mg/kg i.p. alone
# Description: Adult, male Sprague Dawley (Harlan Sprague Dawley, Indianapolis, Ind.) rats weighing 120-150 gm were used in experimental procedures approved by the Animal Care and Use Committee of the M. D. Anderson Cancer Center, University of Texas. Animals were housed three per cage on a 12/12 hr light/dark cycle with water and food pellets available ad libitum.
# All surgical procedures were performed under deep isoflurane anesthesia in 100% 02. The spinal nerve ligation (SNL) was performed as described previously. Kim, S. H., et al., An Experimental Model for Peripheral Neuropathy Produced by Segmental Spinal Nerve Ligation in the Rat, Pain, 1992, 50:355-63. Briefly, a midline incision above the lumbar spine exposed the left L6 transverse process. The process was then removed, the left L5 and L6 spinal nerves were isolated, and both nerves were tightly ligated with 6-0 silk. Prophylactic antibiotic (norfloxacin 5 mg/kg subcutaneously) and analgesic (buprenorphine, 0.2-0.5 mg/kg, or morphine, 2.5 mg/kg, given subcutaneously) were administered once daily for 3 days. All the experiments were conducted 10-14 days after spinal nerve ligation.
# (§1) Rats were placed in a compartment with a wire mesh bottom and allowed to acclimate for a minimum of 30 min before testing. Mechanical sensitivity was assessed using a series of Von Frey filaments with logarithmic incremental stiffness (0.41, 0.70, 1.20, 2.00, 3.63, 5.50, 8.50, and 15.1 g) (Stoelting, Wood Dale, Ill.) as previously described, and 50% probability withdrawal thresholds were calculated with the up-down method. Chaplan, S. R., et al., Quantitative Assessment of Tactile Allodynia in the Rat Paw, J. Neurosci. Methods, 1994, 53:55-63; Dixon, W., The Up-and-Down Method for Small Samples, J. Am. Stat. Assoc., 1965, 60:967-78. In brief, beginning with the 2.0-g probe, filaments were applied to the plantar surface of a hind paw for 6-8 s, in an ascending or descending order after a negative or positive withdrawal response, respectively. Six consecutive responses from the first change in the response were used to calculate the withdrawal threshold (in grams). In cases where response thresholds fell outside the range of detection, 15.00 and 0.25 g were, respectively, assigned for continuous negative or positive responses to the limit of stimuli. The percent maximal possible effect (% MPE) was calculated as ([postdrug threshold−baseline threshold]/[cutoff threshold (15 g)−baseline threshold])×100.
# (§2) Statistical analyses were carried out using BMDP 2007 (Statistical Solutions, Saugus, Mass., USA) and Graph Pad Prism (version 4.03; Graph Pad Software Inc., San Diego, Calif., USA). Data were analyzed using one-way ANOVA, repeated measures ANOVA, or t-test where appropriate. If ANOVA was significant, Tukey-Kramer post hoc analysis was used for multiple group comparison. Area under the curve (AUC) was calculated using the trapezoidal rule. The results are presented as mean±s.e. mean and were considered significant at P<0.05. Analyses of the dose-response curves and statistics were obtained using the pharmacologic software programs of Tallarida and Murray and included calculation of the ED50 values and their 95% confidence intervals (CI). Tallarida, R. J., et al., Manual of Pharmacologic Calculations With Computer Programs, Second ed. New York: Springer-Verlag, 1987.
# [2] = system: paclitaxel-induced neuropathic pain model; test: animal or person; type: in vivo, rat
# Description: Groups of rats received daily i.p. injections of either vehicle or 1.0 mg/kg paclitaxel daily for four consecutive days for a final cumulative dose of 4 mg/kg; using an injection volume of 1 ml/kg. Polomano, R. C., et al., A Painful Peripheral Neuropathy in the Rat Produced by the Chemotherapeutic Drug, Paclitaxel, Pain, 2001, 94:293-304. The vehicle used in our experiments was the same vehicle used clinically for paclitaxel injections and is composed of a mixture of 10% saline and Cremophor EL® and […]. Baseline responses to mechanical stimulation of the hindpaw (see below) were established on day zero and continued daily until the development of neuropathy was confirmed.
# as §1
# To determine sensitivity to noxious heat, rats were placed in plexiglass enclosures on a transparent glass surface maintained at 30° C. and allowed to acclimate for 30 min. A thermal testing apparatus, consisting of a heat-emitting projector lamp and an electronic timer, was used. The device was activated after the lamp is placed directly beneath the planter surface of the hindpaw. The paw withdrawal latency in response to the radiant heat was recorded by a digital timer. A cutoff of 30 s was used to prevent potential tissue damage. After the baseline was measured, three groups of naïve rats (n=10) received 1.0, 3.0, or 10 mg/kg of the compound of Example 3 i.p. Response latencies were determined twice for each rat before drug injection and at 5, 10, 15, 30, 45, 60, 90 and 120 min after IP injection. The percent maximal possible effect (% MPE) was calculated as ([postdrug latency−baseline latency]/[cutoff time (30 s)−baseline latency])×100.
# as §2
# [3] = biological target: CB1 (Homo sapiens (Human), UniProt P21554); test: CB1 Binding Assay ([3H]CP 55940, cell membrane homogenates); details: CB1, test concentration 1.0E−05 (MD); for % of Control Specific Binding 1st: first replicate; for % of Control Specific Binding 2nd: second replicate
# Description: (§3) After being incubated, the samples were filtered rapidly under vacuum through glass fiber filters (GF/B; Packard) presoaked with 0.3% PEI and rinsed several times with ice-cold buffer containing 50 mM Tris HCl (pH 7.4) and 0.5% BSA using a 96-sample cell harvester (Unifilter; Packard). The filters were dried then counted for radioactivity in a scintillation counter (Topcount; Packard) using a scintillation cocktail (Microscint 0; Packard). The results were expressed as a percentage of the inhibition of the control radioligand-specific binding. The reference standard compounds were tested in each experiment at several concentrations to obtain a competition curve from which its IC50 was calculated.
# [4] = biological target: CB2 (Homo sapiens (Human), UniProt P34972); test: CB2 Binding Assay ([3H]WIN 55212-2, cell membrane homogenates); details: CB2, test concentration 1.0E−05 (MD); for % of Control Specific Binding 1st: first replicate; for % of Control Specific Binding 2nd: second replicate
# Description: as §3, with “Cell membrane homogenates (15 μg protein) were incubated for 120 min at 37° C. with 0.8 nM [3H]WIN 55212-2 (the reference standard [Munro, 1993 #1321]) in the absence or presence of the test compound in a buffer containing 50 mM HEPES/Tris HCL (pH 7.4), 5 mM MgCl2, 2.5 mM EGTA, and 0.1% BSA. Nonspecific binding was determined in the presence of 10 μM WIN 55212-2. After” for “After”
# CB1, sequence (P21554 whole entry): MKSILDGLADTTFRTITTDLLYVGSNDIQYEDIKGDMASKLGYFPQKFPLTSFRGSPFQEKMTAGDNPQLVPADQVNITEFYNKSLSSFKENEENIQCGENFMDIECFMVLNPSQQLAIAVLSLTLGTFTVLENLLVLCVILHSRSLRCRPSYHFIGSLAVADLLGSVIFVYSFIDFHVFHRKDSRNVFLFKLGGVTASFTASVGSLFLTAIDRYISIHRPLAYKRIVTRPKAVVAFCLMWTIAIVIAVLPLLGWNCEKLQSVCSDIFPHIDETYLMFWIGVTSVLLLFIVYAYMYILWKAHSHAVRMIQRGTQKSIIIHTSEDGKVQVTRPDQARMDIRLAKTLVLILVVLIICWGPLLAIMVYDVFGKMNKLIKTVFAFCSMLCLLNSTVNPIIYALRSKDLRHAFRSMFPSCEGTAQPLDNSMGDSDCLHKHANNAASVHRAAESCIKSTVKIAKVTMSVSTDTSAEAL
# CB2, sequence (P34972 whole entry): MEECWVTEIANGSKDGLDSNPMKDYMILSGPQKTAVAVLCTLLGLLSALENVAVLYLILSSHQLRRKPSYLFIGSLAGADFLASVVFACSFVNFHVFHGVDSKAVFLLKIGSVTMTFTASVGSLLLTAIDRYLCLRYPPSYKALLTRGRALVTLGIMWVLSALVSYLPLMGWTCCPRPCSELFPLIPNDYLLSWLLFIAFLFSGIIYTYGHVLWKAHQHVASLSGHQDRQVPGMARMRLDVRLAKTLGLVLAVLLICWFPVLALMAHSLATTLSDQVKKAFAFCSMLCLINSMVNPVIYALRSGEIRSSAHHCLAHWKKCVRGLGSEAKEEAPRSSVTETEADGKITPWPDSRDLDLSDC
smiles,measurement,setting,value
"Cc1c(C(=O)NN2CCCCC2)nn(-c2ccc(Cl)cc2Cl)c1-c1ccc(I)cc1 [AM251, reference compound]",effect of antagonist alone on paw withdrawal threshold,[1],had no effect
"COc1ccc(C(=O)c2c(C)n(CCN3CCOCC3)c3cc(I)ccc23)cc1 [AM630, reference compound]",effect of antagonist alone on paw withdrawal threshold,[1],had no effect
"CN1CCCCC1Cn1cc(C(=O)c2cc([N+](=O)[O-])ccc2I)c2ccccc21 (stereo not shown) [AM1241, reference compound]",effect on reversing thermal hyperalgesia compared with 15 mg/kg compound of Example 3 i.p.,[2]; 5 mg/kg i.p.,significantly less than
same,antiallodynic effect versus vehicle,[1]; 15 mg/kg i.p.,produced antiallodynic effects
same,effect of naloxone pretreatment on analgesic effects,[1]; AM1241 15 mg/kg i.p.,significantly reversed
"CC1(Cc2ccccc2)COc2cc(C(=O)Nc3ccccc3I)ccc21 (stereo not shown) [Example 1, 3-Benzyl-3-methyl-2,3-dihydro-benzofuran-6-carboxylic acid (2-iodo-phenyl)-amide]",% Inhibition of Control Specific Binding,[3],14%
same,% of Control Specific Binding Mean,[3],85.5%
same,% of Control Specific Binding 1st,[3],85.7%
same,% of Control Specific Binding 2nd,[3],85.3%
same,% Inhibition of Control Specific Binding,[4],23%
same,% of Control Specific Binding Mean,[4],76.6%
same,% of Control Specific Binding 1st,[4],78.3%
same,% of Control Specific Binding 2nd,[4],74.8%
"CC1(Cc2ccccc2)COc2ccc(C(=O)Nc3ccccc3I)cc21 (stereo not shown) [Example 4, 3-Benzyl-3-methyl-2,3-dihydro-benzofuran-5-carboxylic acid-o-iodoanilide]",% Inhibition of Control Specific Binding,[3],9%
same,% of Control Specific Binding Mean,[3],90.5%
same,% of Control Specific Binding 1st,[3],85.9%
same,% of Control Specific Binding 2nd,[3],95.1%
same,% Inhibition of Control Specific Binding,[4],15%
same,% of Control Specific Binding Mean,[4],84.7%
same,% of Control Specific Binding 1st,[4],83.9%
same,% of Control Specific Binding 2nd,[4],85.5%
"CC1(Cc2ccccc2)COc2ccc(C(=O)N3CCCCC3)cc21 (stereo not shown) [Example 6, 3-benzyl-3-methyl-2,3-dihydrobenzofuran-5-carboxylic acid-piperidine amide]",% Inhibition of Control Specific Binding,[4],31%
same,% of Control Specific Binding Mean,[4],69.4%
same,% of Control Specific Binding 1st,[4],71.6%
same,% of Control Specific Binding 2nd,[4],67.3%
"C=CCN1CC[C@]23c4c5ccc(O)c4O[C@H]2C(=O)CC[C@@]3(O)[C@H]1C5 [naloxone, reference compound]",effect per se on paw withdrawal threshold,[1]; 10 mg/kg i.p.,did not affect paw withdrawal threshold
"CC(=O)O[C@H]1C(=O)[C@@]2(C)[C@H]([C@H](OC(=O)c3ccccc3)[C@]3(O)C[C@H](OC(=O)[C@H](O)[C@@H](NC(=O)c4ccccc4)c4ccccc4)C(C)=C1C3(C)C)[C@]1(OC(C)=O)CO[C@@H]1C[C@@H]2O [paclitaxel, reference compound]","paw withdrawal threshold to mechanical stimulation, left paw","[2]; rat, in vivo",2.8 ± 0.15 g
same,"paw withdrawal threshold to mechanical stimulation, right paw","[2]; rat, in vivo",2.9 ± 0.19 g
